Measurements published in ChEMBL document CHEMBL1201862, “PubChem BioAssay data set” (2004).
Activity calls are given as the source filed them. For most assays here, no stated cut-off is given here; in the data, actives have a measured EC50 and inactives only a lower limit.

Key:
[1] = inhibitors of Vif binding to APOBEC3G peptide, primary screen, biochemical, TR-FRET, GST-Vif 1-94, biotin-A3G peptide, dose response retest (AID 1117319); assay type: functional;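 further: TR-FRET signal of purified GST-Vif binding a biotinylated A3G peptide; inhibitors lower the FRET signal by blocking Vif and A3G binding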
[2] = target: T1, Short transient receptor potential channel 4 (Mus musculus, UniProt Q9QUQ5); assay: mouse TRPC4 channel activators, dose response, cell-based, HEK293 TRPC4/mu-opioid, Fluo-4 calcium (AID 434937); assay type: functional
T1 sequence (Q9QUQ5 whole entry): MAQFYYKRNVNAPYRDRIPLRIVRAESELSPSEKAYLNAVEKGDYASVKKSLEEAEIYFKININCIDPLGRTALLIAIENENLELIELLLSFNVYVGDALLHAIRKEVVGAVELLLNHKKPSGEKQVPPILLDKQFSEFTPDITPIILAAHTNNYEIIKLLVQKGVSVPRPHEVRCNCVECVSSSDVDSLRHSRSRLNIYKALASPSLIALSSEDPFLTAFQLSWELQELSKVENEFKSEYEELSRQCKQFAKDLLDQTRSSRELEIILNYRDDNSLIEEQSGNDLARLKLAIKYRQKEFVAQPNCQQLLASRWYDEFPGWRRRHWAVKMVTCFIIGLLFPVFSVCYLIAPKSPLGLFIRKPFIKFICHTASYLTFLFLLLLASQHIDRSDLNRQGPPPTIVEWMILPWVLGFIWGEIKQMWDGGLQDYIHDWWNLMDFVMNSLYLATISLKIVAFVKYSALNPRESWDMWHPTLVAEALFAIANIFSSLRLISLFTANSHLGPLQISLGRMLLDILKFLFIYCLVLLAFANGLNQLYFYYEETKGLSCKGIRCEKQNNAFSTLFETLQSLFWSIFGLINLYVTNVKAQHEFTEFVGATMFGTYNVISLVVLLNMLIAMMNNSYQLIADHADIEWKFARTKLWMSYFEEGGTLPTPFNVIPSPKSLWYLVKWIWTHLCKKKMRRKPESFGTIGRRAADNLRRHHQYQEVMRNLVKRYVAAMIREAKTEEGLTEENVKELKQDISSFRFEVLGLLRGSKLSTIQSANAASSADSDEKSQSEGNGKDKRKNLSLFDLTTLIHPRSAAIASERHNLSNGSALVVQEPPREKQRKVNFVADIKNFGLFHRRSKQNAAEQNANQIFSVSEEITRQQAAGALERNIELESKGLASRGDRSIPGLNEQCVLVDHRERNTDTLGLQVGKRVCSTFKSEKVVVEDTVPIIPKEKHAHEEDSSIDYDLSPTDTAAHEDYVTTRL

[3] = target: T2, Corticotropin-releasing factor receptor 2/Corticotropin-releasing factor-binding protein (Homo sapiens, UniProt P24387+Q13324); assay: Dose Response confirmation of uHTS hits for small molecule antagonists of the CRF-binding protein and CRF-R2 receptor complex.; assay type: functional; settings: read-out: IC50_Mean
T2 sequence (Q13324 whole entry): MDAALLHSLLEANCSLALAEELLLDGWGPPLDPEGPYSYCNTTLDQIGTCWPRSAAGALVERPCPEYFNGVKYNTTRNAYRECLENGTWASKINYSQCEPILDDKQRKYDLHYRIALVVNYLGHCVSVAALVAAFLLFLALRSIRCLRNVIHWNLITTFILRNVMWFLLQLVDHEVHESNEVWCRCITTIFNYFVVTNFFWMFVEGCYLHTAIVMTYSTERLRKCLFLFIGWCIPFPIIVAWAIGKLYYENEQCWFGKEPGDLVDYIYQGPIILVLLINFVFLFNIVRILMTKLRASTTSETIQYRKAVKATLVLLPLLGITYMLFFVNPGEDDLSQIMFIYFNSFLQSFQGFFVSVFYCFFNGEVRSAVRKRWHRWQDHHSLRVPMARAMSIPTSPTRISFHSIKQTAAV
T2 sequence (P24387 whole entry): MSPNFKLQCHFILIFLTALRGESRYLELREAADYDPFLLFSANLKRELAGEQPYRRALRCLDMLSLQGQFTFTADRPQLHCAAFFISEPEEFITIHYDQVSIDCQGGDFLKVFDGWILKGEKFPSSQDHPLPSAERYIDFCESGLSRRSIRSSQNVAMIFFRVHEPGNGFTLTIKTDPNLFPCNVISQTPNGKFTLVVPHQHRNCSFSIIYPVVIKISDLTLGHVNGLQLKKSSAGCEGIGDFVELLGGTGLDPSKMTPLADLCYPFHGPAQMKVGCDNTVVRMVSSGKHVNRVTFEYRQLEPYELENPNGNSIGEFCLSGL

[4] = target: T2, Corticotropin-releasing factor receptor 2/Corticotropin-releasing factor-binding protein; assay: activators of CRF receptor 2 with binding protein – uHTS hits, confirmation (AID 602473); assay type: functional; settings: read-out: EC50_Mean
[5] = CRF-BP/CRF-R2 complex antagonists, dose response, cell-based, uHTS hits, 384-well (AID 651639); assay type: functional, Homo sapiens; settings: read-out: IC50_Mean
[6] = Luminescence Cell-Based Dose Response HTS to Identify Activators of Luciferase Translation or Activity in H4 […] Cells. [Related pubchem assays: 1829 (Project Summary), 1814 (Primary HTS)]; assay type: functional
[7] = Luminescence Cell-Based Dose Confirmation to Identify Activators of 5'UTR Stem-Loop Driven Alpha-Synuclein mRNA Translation in H4 Neuroglioblastoma Cells. [Related pubchem assays: 1829 (Project Summary), 1814 (Primary HTS)]; assay type: functional
[8] = Luminescence Cell-Based Dose Response to Identify Activators of 5'UTR Stem-Loop Driven Prion Protein mRNA Translation in H4-C Neuroglioblastoma Cells. [Related pubchem assays: 1829 (Project Summary), 1814 (Primary HTS)]; assay type: functional
H4 = assay: Luminescence Cell-Based Dose Response HTS to Identify Activators of 5'UTR Stem-Loop Driven Prion Protein mRNA Translation in H4 Neuroglioblastoma Cells. [Related pubchem assays: 1829 (Project Summary), 1814 (Primary HTS)]; assay type: functional; settings: Homo sapiens
[9] = Luminescence Cell-Based Dose Response to Identify Activators of Luciferase Translation or Activity in H4-C Neuroglioblastoma Cells. [Related pubchem assays: 1829 (Project Summary), 1814 (Primary HTS)]; assay type: functional
[10] = Luminescence Cell-Based Dose Confirmation HTS to Identify Activators of 5'UTR Stem-Loop Driven Alpha-Synuclein mRNA Translation in H4 Neuroglioblastoma Cells. [Related pubchem assays: 1829 (Project Summary), 1814 (Primary HTS)]; assay type: functional
[11] = target: Heat shock protein HSP 90-alpha (Homo sapiens, UniProt P07900); assay type: functional, organism-based

Question: With `COc1ccc(NC(=O)CN2CCC(C(N)=O)CC2)cc1` as the molecule, how does the IC50 [1] read?
Answer: > 100000 nM (active)

Question: For `N=C(N)NN=C1CCCCCCCCCCC1`, which EC50 [2] is on record?
Answer: 7500 nM (active)

Question: Which IC50 [3] does the source give for `Cc1cs/c(=N\c2ccccc2)n1Cc1ccco1` here?
Answer: 38400 nM (active)

Question: And the EC50 [4]?
Answer: > 53000 nM (inactive)

Question: And the IC50 [5]?
Answer: > 20000 nM (inactive)

Question: Which IC50 [1] does the source give for `CC1C/C(=N/N2C(=O)CSC2=S)CC(C)(C)C1` (stereo not given) here?
Answer: > 100000 nM (active)

Question: With `COC(=O)CSc1nc(-c2cccs2)ccc1C#N` as the molecule, how does the EC50 [6] read?
Answer: < 100 nM (active)

Question: And the EC50 [7]?
Answer: 219 nM (active)

Question: And the EC50 [8]?
Answer: 307 nM (active)

Question: And the EC50 (H4)?
Answer: 261 nM (active)

Question: What about the EC50 [9] of the same molecule?
Answer: 179 nM (active)

Question: With `CCC(=O)N1CCc2cc(Br)cc(S(=O)(=O)NCCCN(C)Cc3ccccc3)c21` as the molecule, how does the EC50 [2] read?
Answer: 94.7 nM (active)

Question: Which IC50 [3] does the source give for `S=C(NCCc1ccccc1)N1CCC2CC1c1c(Cl)cccc12` (stereo not given) here?
Answer: 28900 nM (active)

Question: What about the EC50 [4] of the same molecule?
Answer: > 53000 nM (inactive)

Question: And the IC50 [5]?
Answer: > 20000 nM (inactive)

Question: With `N=C(CS(=O)(=O)c1ccccn1)NOC(=O)c1ccccc1Cl` as the molecule, how does the EC50 [6] read?
Answer: < 100 nM (active)

Question: What about the EC50 [7] of the same molecule?
Answer: 244 nM (active)

Question: And the EC50 [8]?
Answer: 769 nM (active)

Question: And the EC50 (H4)?
Answer: 10700 nM (active)

Question: What about the EC50 [9] of the same molecule?
Answer: 5850 nM (active)

Question: What about the EC50 [10] of the same molecule?
Answer: 170 nM (active)

Question: With `CCOC(=O)c1cc(C)n(CCc2c[nH]cn2)c1C` as the molecule, how does the EC50 [2] read?
Answer: 53.3 nM (active)

Question: With `COC(=O)c1ccccc1NC(=O)c1cccc(COc2ccccc2Cl)c1` as the molecule, how does the EC50 [6] read?
Answer: < 100 nM (active)

Question: And the EC50 [7]?
Answer: 299 nM (active)

Question: And the EC50 [8]?
Answer: 809 nM (active)

Question: What about the EC50 [9] of the same molecule?
Answer: 295 nM (active)

Question: For `Cc1cccc(CSc2nc3c(c(=O)n2C)SCC3)c1`, which IC50 [3] is on record?
Answer: < 368 nM (active)

Question: And the EC50 [4]?
Answer: > 53000 nM (inactive)

Question: What about the IC50 [5] of the same molecule?
Answer: > 20000 nM (inactive)

Question: Which AC50 [11] does the source give for `Oc1c(C(c2ccccc2)N2CCOCC2)ccc2ccccc12` (stereo not given) here?
Answer: 7260 nM (active)
